Experimental data reported in article PMC2737065 (Journal of the American Chemical Society, 2009).

Target: P450 19A1 (aromatase) (Homo sapiens, UniProt P11511)
Assay: competitive ABPP: blockade of probe […] labeling, in-gel fluorescence
Format: biochemical

Chain of P450 19A1 (aromatase) (P16435 2-677): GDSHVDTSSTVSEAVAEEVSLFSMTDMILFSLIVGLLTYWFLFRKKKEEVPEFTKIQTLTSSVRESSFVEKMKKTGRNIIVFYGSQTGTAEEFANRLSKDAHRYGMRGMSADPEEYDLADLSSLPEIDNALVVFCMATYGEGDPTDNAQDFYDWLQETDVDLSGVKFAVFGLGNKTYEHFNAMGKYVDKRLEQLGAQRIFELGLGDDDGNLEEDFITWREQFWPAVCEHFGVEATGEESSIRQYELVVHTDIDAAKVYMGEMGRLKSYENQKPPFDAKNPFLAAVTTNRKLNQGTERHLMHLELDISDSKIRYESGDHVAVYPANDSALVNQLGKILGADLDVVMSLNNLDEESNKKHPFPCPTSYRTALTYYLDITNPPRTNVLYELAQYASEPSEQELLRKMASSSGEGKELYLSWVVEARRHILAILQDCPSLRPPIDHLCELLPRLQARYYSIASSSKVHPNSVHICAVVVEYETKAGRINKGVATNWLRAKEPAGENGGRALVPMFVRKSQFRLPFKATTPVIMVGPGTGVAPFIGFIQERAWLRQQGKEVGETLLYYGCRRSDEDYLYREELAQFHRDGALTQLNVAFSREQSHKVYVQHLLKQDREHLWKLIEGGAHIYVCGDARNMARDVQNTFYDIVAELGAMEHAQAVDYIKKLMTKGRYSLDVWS
Chain of P450 19A1 (aromatase) (P11511 whole entry): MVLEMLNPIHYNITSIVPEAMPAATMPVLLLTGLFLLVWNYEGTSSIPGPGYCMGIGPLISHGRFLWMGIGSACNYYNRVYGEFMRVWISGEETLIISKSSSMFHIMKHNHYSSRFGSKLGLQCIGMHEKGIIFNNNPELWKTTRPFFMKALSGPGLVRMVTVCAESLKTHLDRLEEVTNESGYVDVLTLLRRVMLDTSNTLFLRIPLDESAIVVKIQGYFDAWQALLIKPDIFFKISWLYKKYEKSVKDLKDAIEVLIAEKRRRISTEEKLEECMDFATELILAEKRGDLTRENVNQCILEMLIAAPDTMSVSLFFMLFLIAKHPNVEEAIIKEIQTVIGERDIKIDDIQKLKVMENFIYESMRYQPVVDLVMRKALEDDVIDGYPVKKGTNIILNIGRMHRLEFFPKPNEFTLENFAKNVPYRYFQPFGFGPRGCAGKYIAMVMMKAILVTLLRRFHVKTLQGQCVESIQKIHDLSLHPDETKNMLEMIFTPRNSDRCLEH

C[C@]12CCC(=O)C(O)=C1CC[C@@H]1[C@@H]2CC[C@]2(C)C(=O)CC[C@@H]12 [formestane]
IC50: 430 nM
